What was measured:
[1] = test system: eukaryotic and prokaryotic (Gram +ve/Gram −ve) cells; test: Staining of eukaryotic and prokaryotic cells, time needed and differentiation; format: cell-based
Experimental: Using the present Zn(II)-reagent (L.Zn) in presence of α-CD, eukaryotic and prokaryotic (Gram +ve/Gram −ve) cells could be stained with only 2 minutes incubation; while for the previous reagent (1.Zn) cells were needed to be incubated for 10 minutes for color development. Further, intensity of color of the stained cell (using present Zn(II)-complex was much more intense as compared to that reported earlier.
We also explored the possibility of using L.Zn/L.Zn.α-CD as the staining agent for prokaryotes (Gram +ve and Gram −ve bacterial cells). […] As expected stained cells for Gram +ve bacteria appeared longer as compared to those of the stained Gram −ve bacteria. The difference in the staining intensity for two different bacteria with the L.Zn.α-CD (Scheme 2) could be much better understood after going into the depth of cell biology of each bacterial cells and the detailed biochemistry involved while staining; besides, difference in cell structure and cell wall composition of the respective bacteria. […] Changes on the cell surfaces on binding of the dye, L.Zn (Scheme 1, Formula 1A) were also evident from the SEM images recorded for Gram −ve and Gram +ve bacteria, in absence and presence of staining agent (FIGS. 11C to 11F). […] The growth profile of Eukaryotic Yeast cells (Saccharomyces cerevisiae) and Prokaryotic bacterial cells ([…]) in an aqueous culture medium in absence and presence of L.Zn (Scheme 1, Formula 1A) are shown in FIG. 12. Change in absorbance (at λmax=600 nm) vs time (t) was plotted up to 30 h; as no appreciable change in growth was observed thereafter. […] FIGS. 12a, 12c and 12e show the actual growth curve of Saccharomyces cerevisiae, Pseudomonas fluorescence and Bacillus megaterium, respectively with time. While, FIGS. 12b, 12d and 12f show relative build up of ATP in cytoplasm with time for Saccharomyces cerevisiae, Pseudomonas fluorescence and Bacillus megaterium, respectively in presence of L.Zn (Scheme 1, Formula 1A) (D1) and L.Zn.α-CD (Scheme 2) (D2). […]

[2] = Absorption and 31P NMR study of binding to various anions
Experimental: In order to examine the binding behaviour of the Zn-complex (L.Zn) (Scheme 1, Formula 1A) to various important anions (like ATP, CTP, ADP, AMP, PPi, H2PO4^−, SO4^2−, CH3CO2^−, I^−, Br^−, Cl^− and F^−) the following experiment was conducted. A solution (˜21 mM) for of sodium salts of ATP, CTP, ADP, AMP, PPi, H2PO4^−, SO4^−, CH3CO2^−, I^−, Br^−, Cl^−, and F^− were prepared using respective salt in 10 mM HEPES buffer solutions (pH 7.2) and was stored for use. Further, a solution (44.35 μM) of the compound L.Zn (Scheme 1, Formula 1A) was prepared using doubly-distilled and deionized water and stored. These stored solutions were used on the day of preparation of the solution for experiment. […]

[3] = Solubility in water without and with α-cyclodextrin; format: physicochemical
Experimental: Solubility of L.Zn (Scheme 1, Formula 1A) in water is limited (0.0448 gL^−1). However, this could be enhanced in presence of α-cyclodextrin (c-CD). 2.3 mg of L.Zn (Scheme 1, Formula 1A) was dissolved in 5 mL of double distilled water and stirred at 25 to 35° C. for 1 hour. […] Similar experiment was repeated in presence of α-CD. In this case 14.2 mg of α-CD was dissolved in 5 mL of double distilled water containing 2.913 mg of L.Zn (Scheme 1, Formula 1A) and this solution was stirred at 25° C. for 1 hour; while a solution with little suspended solid was obtained. This was filtered using G-4 gooch crucible. Filtrate was collected and optical density (O.D.) of the filtrate was monitored at 458 nm. Considering the complete formation of the inclusion complex (pseudorotaxane form), concentration was evaluated based on the known εLZn.α-CD value and the O.D. at 458 nm. […] L.Zn (Scheme 1, Formula 1A) present in aqueous solution in the pseudorotaxane form is being represented as L.Zn.CD in Scheme 2.

In the case of `CN(C)c1ccc(N=Nc2ccc(S(=O)(=O)N3CCCNCCNCCCNCC3)cc2)cc1.O=[N+]([O-])[O-].O=[N+]([O-])[O-].[Zn+2]` [L.Zn], the “incubation time needed for staining” value ([1]; in presence of α-CD) is reported as 2 min, the “distinguishing Gram +ve and Gram −ve bacteria” value ([1]; through different color intensities and shape of the stained cells) is reported as “could also distinguish Gram +ve and Gram −ve bacteria” and the “time in which staining takes place” value ([1]; without α-CD) is reported as 10 to 20 min. The “observed binding preference / trend in binding affinity” value ([2]; 31P NMR and spectral data) was “ATP>>CTP>ADP>>AMP”, the “change of absorption spectrum on addition of other anions” value ([2]; 2000 equivalents of other anions, pH 7.2) was “no change was observed” and the “L.Zn present in solution in presence of α-CD” value ([3]; 14.2 mg α-CD in 5 mL double distilled water, 25° C., O.D. at 458 nm) was 0.34 g/L. The solubility in water ([3]; double distilled water, stirred 1 hour, from optical density of filtrate) was 0.0448 gL^−1, the “solubility in water” value ([3]; present reagent) was “completely soluble in water” and the “increase in solubility in presence of α-CD” value ([3]; water, with versus without α-CD) was roughly 7.5 fold.

Source: US20130130306A1, “ZN (II) BASED COLORIMETRIC SENSOR AND PROCESS FOR THE PREPARATION THEREOF” (COUNCIL OF SCIENTIFIC & INDUSTRIAL RESEARCH, priority 2010, published 2013)
